{
  "source": "paper PMC12032302",
  "about": "“A20 attenuates oxidized self-DNA-mediated inflammation in acute kidney injury” (Signal Transduction and Targeted Therapy, 2025)",
  "key": {"[1]": {"tested_on": "HA-NEK7 Tri-MUT (K130, L132 and K140)", "test": "biotin-P-II immunoprecipitation of HA-NEK7 Tri-MUT", "assay_type": "binding, mouse", "conditions": "co-IP with biotin-labeled P-II, HEK293T lysates, overnight 4 °C, immunoblot; Fig. 7c", "procedure": "For biotin mediated immunoprecipitation, plasmids of HA-NEK7 (WT, K130A, L132R, K140A and Tri-MUT) were transfected into HEK293T cells for 2 days. Then, cells were lysed in MLB with inhibitor cocktail for 10 min at 4 °C. Cell lysates were collected and centrifuged at 12,000 rpm for 15 min at 4 °C and the supernatant was incubated with biotin conjunction peptide overnight at 4 °C. On the next day, streptavidin magnetic beads(Invitrogen, Lot#91221939) were added and incubated for 1 h. The immunocoprecipitated protein was then subjected to washing, heating, and western blot analysis.\nMouse HA-NEK7, FlAG-A20, and NLRP3 cDNA were amplified by employing standard PCR techniques from a mouse cDNA library. Subsequently, diverse cDNAs were inserted into mammalian expression vectors pcDNA3.1(+), pRK5, or pCMV6 with 3×Flag or 3×HA tags. For transient transfections, Lipofectamine 3000 was utilized according to the manufacturer’s instructions."}, "[2]": {"tested_on": "AKI mice", "test": "serum creatinine of AKI mice", "assay_type": "in vivo, mouse", "conditions": "Cis-treated mice; A20-derived peptide 15 mg/kg i.p., pretreated; n = 5", "procedure": "LPS (Sigma, Cat#L2630) was dissolved in PBS to 2.5 mg/mL for one-time intraperitoneal 25 mg/kg injection; deoxyribonuclease I (DNase I, Sigma, Cat#SLBV1446) was dissolved in PBS to 1 mg/mL and injected intraperitoneally at a dose of 10 mg/kg at 4 h before cisplatin or AA I injection and every 24 h after injection. Disulfiram (MedChemExpress, CAS:97-77-8) was diluted in corn oil to 12.5 mg/mL and injected 50 mg/kg intraperitoneally every 24 h after cisplatin or AA I administration. Cu(II) (Sigma, Cat#344419) was dissolved in PBS to 30 µg/mL and administered intraperitoneally 6 h before disulfiram at a dose of 0.15 mg/kg; TNF-α (Peprotech, Cat#315-01 A) was dissolved in PBS to 10 µg/mL and injected at 100 µg/kg once through the caudal vein 24 h before cisplatin injection. […] MCC950 (MedChem Express, CAS:256373-96-3) was dissolved in PBS to 5 mg/mL and injected intraperitoneally at a dose of 50 mg/kg 12 h before cisplatin or AA I injection and every 12 h after injection; berberine (APExBIO, Cat#N1368) was dissolved in PBS to 5 mg/mL and 5 mg/kg injected intraperitoneally at 36, 24 and 12 h before cisplatin; […] To supervise the effects of various treatments on survival time and rate, the mice were observed, and survival curves were generated. To investigate the specific mechanisms, whole blood was retrieved from the orbit, serum was separated through centrifugation on the 4th day, and the mice were then sacrificed by cervical dislocation. Mice were randomly assigned in experiments, while there was no blinding during the animal experiments. Renal function was evaluated based on serum creatinine level and histological features. Serum creatinine was determined in the Clinical Pharmacology Lab, Clinical Trial Center, WCH, SCU. The kidneys were extracted from euthanized mice, immediately fixed with 4% paraformaldehyde, and embedded in paraffin. Furthermore, the samples were cut into 5 µm thick sections. These tissue samples were subjected to hematoxylin-eosin (HE) and […] according to standard protocols with HE reagent (Biosharp, Cat#BL702B, BL703B) and Masson reagent (Servicebio, Cat#G1006-100ML). The pathological changes were detected through optical microscopy, and the tubulointerstitial injury score was determined as previously reported."}, "[3]": {"tested_on": "AKI mice", "test": "overall therapeutic effect in AKI mice", "assay_type": "in vivo, mouse", "conditions": "A20-derived peptide (P-II), abstract", "procedure": "Aristolochic acid I sodium salt was dissolved in PBS to 1 mg/mL and injected intraperitoneally at a dose of 10 mg/kg (body weight) every 24 h for 3 days; cisplatin was dissolved in PBS to 1.5 mg/mL for one-time intraperitoneal 25 mg/kg injection; LPS (Sigma, Cat#L2630) was dissolved in PBS to 2.5 mg/mL for one-time intraperitoneal 25 mg/kg injection; deoxyribonuclease I (DNase I, Sigma, Cat#SLBV1446) was dissolved in PBS to 1 mg/mL and injected intraperitoneally at a dose of 10 mg/kg at 4 h before cisplatin or AA I injection and every 24 h after injection. Disulfiram (MedChemExpress, CAS:97-77-8) was diluted in corn oil to 12.5 mg/mL and injected 50 mg/kg intraperitoneally every 24 h after cisplatin or AA I administration. Cu(II) (Sigma, Cat#344419) was dissolved in PBS to 30 µg/mL and administered intraperitoneally 6 h before disulfiram at a dose of 0.15 mg/kg; TNF-α (Peprotech, Cat#315-01 A) was dissolved in PBS to 10 µg/mL and injected at 100 µg/kg once through the caudal vein 24 h before cisplatin injection. Metformin (Sigma, Cat#D150959) was dissolved in PBS to 5 mg/mL and injected intraperitoneally at a dose of 50 mg/kg 24 h before cisplatin or AA I injection and every 24 h after injection. MCC950 (MedChem Express, CAS:256373-96-3) was dissolved in PBS to 5 mg/mL and injected intraperitoneally at a dose of 50 mg/kg 12 h before cisplatin or AA I injection and every 12 h after injection; berberine (APExBIO, Cat#N1368) was dissolved in PBS to 5 mg/mL and 5 mg/kg injected intraperitoneally at 36, 24 and 12 h before cisplatin; A20-derived-peptide was dissolved in ddH2O to 3 mg/mL and injected intraperitoneally at a dose of 15 mg/kg 1 h before cisplatin. To supervise the effects of various treatments on survival time and rate, the mice were observed, and survival curves were generated. To investigate the specific mechanisms, whole blood was retrieved from the orbit, serum was separated through centrifugation on the 4th day, and the mice were then sacrificed by cervical dislocation. Mice were randomly assigned in experiments, while there was no blinding during the animal experiments."}},
  "note": "Residues, ends and D or L forms follow the SMILES beside them.",
  "data": [
    {"compound": "CSCC[C@H](NC(=O)[C@H](Cc1ccc(O)cc1)NC(=O)[C@H](CCC(N)=O)NC(=O)[C@H](CS)NC(=O)[C@H](C)NC(=O)[C@H](C)NC(=O)[C@H](Cc1c[nH]cn1)NC(=O)[C@H](CCSC)NC(=O)[C@H](CC(C)C)NC(=O)[C@H](CS)NC(=O)[C@H](CC(N)=O)NC(=O)CNC(=O)[C@H](CC(=O)O)NC(=O)CNC(=O)[C@H](CC(N)=O)NC(=O)[C@@H](NC(=O)[C@H](CCCCN)NC(=O)[C@H](CC(C)C)NC(=O)[C@H](C)NC(=O)[C@@H](NC(=O)[C@H](CC(C)C)NC(=O)[C@@H](N)CCCCN)C(C)C)[C@@H](C)O)C(=O)N[C@@H](Cc1c[nH]c2ccccc12)C(=O)NCC(=O)N[C@H](C(=O)N[C@@H](CCC(N)=O)C(=O)N[C@@H](CC(=O)O)C(=O)N[C@H](C(=O)N[C@@H](CC(=O)O)C(=O)O)[C@@H](C)O)C(C)C", "note": "[P-II] (H-KLVALKTNGDGNCLMHAACQYMWGVQDTD-OH; N-terminus and C-terminus assumed)", "values": [
      {"measurement": "binding of NEK7 and P-II, effect of simultaneous mutation of three residues", "setting": "[1]", "value": "significantly attenuate the binding of NEK7 and P-II"},
      {"measurement": "serum creatinine (in words)", "setting": "[2]", "value": "alleviated the serum creatinine"},
      {"measurement": "survival and renal injury of AKI mice", "setting": "[3]", "value": "improves the survival and renal injury of AKI mice"}
    ]}
  ]
}
